Consider 4 molecules from patent US20240409602A1, “PEPTIDE MODULATORS OF NEUROLIGIN 4-NEUREXIN 1-BETA AXIS FOR TREATMENT OF LIVER DISORDERS” (HADASIT MEDICAL RESEARCH SERVICES AND DEVELOPMENT LTD., priority 2022, published 2024).

No end group written: not given here.

The subject of one series is NK cells. The series can be described thus: NK cell activation (CD107a) in monoculture, flow cytometry. The class given is cell-based, human. An excerpt:
(§1) Inhibitory Peptide synthesis: inhibitory peptide 1: MEQGEFLNYD (SEQ ID NO: 1), inhibitory peptide 2: QILMEQGEFLNYDIM (SEQ ID NO: 2), inhibitory peptide 3: […] (SEQ ID NO: 3), and a control peptide having a scrambled sequence: LEGEDQNFYM (SEQ ID NO: 7) were synthesized by Pepscan Ltd. at a purity of 98.3%.
(§2) Cells: primary NK cells were isolated from patients having advanced fibrosis, human hepatic stellate cells (LX2) were commercially purchased.
Monoculture conditions: peptides were supplemented to media of cultured NK cells for 6 h stimulation.
(§3) Fluorescence-activated cell sorting (FACS): Staining colors of antibodies was as follows: αSMA>PE, CD107>FITC, CD56>. After analysis using LSR Fortessa analyzer, raw data was transferred to analysis program FCS Express v7.0.
Three peptides potentially having an inhibitory effect on NLGn4-Nrx1β PPI were generated. The three peptides (peptide 1, peptide 2, and peptide 3) consist of different amino acid sequences (SEQ ID NO: 1, SEQ ID NO: 2, and SEQ ID NO: 3, respectively) that vary in length, all derived from the same binding site for the NLGn4X ligand β-neurexin. The active binding site includes a domain containing the amino acids 359-364 in NLGn4X and the epitopes critical for binding are E361, L363, H267, Y463, and E270.
Initially, peptides were screened for their effect on the activity of NK cells, which was evaluated by measuring the levels of CD107a activation marker. Monocultures of NK cells were stimulated with increasing concentrations of the potentially inhibitory NLGn4-Nrx1β PPI peptides (FIG. 1 and FIGS. 2A-B).
For orientation: A flow cytometer gives signals particle by particle.

In series [1] the test system is CCl4-induced mice (acute hepatic fibrosis model). Put plainly: Liver histology (H&E, Sirius Red, Masson's trichrome) in CCl4 model. The note with it: 5 or 10 mg/mice i.p. 3×/week for 4 weeks. Type of series: in vivo. On the procedure: (§4) Animal model: 40 WT naïve C57BL/6J male mice (12 weeks) were either induced for acute hepatic fibrosis by i.p injections of 0.5 μl pure carbon tetrachloride CCl4/g body weight (one to nine dilution in mineral oil) (CCl4; Sigma, C-5331) 3×/week for four weeks as an advanced model of hepatic fibrosis, or left untreated (induced n=32, control n=8 per experiment). NLGn4-Nrx1β PPI modulator peptide 1 was i.p injected to CCl4 induced mice as preventive doses from the beginning of the model starting at 1st week of CCl4 at a concentration of 5 and 10 mg/mice 3×/week for four weeks (5 mg/mice n=8, 10 mg/mice n=8). A scrambled peptide was also i.p injected to CCl4 induced mice (5 mg/mice n=8, 10 mg/mice n=8). Food and water intake were recorded every week. Mice were sacrificed two days after the final CCl4 injection. To this end, the animals were weighed and anesthetized with inhaled 5% isoflurane for 10 seconds before cervical dislocation.
(§5) Histological and biochemical assessment of mice livers: The posterior one-third of the liver was fixed in 4% formalin for 24 hours and then paraffin-embedded in an automated tissue processor. […] Serum ALT concentrations were determined using ELISA. […]

The subject of a further series is Hep3B cells. Put plainly: Cell cycle analysis of Hep3B cells by flow cytometry, PI staining. Type of series: cell-based, human. The note with it: 8000 ng/ml. The procedure: Cell cycle analysis by Flow cytometry: evaluation of cell cycle stage of Hep3B HCC cells, was performed according to a standard protocol, using Propidium-Iodide (PI)-staining of nuclei. To […] attenuation of the proliferative capabilities of HCC cells following modulation by peptide 1, the stage of the cell cycle of Hep3B cells treated with 8000 ng/ml peptide 1 or with a control peptide having a scrambled sequence was evaluate using flow cytometry and Propidium Iodide (PI)-staining.

Series [2] has as its system CCl4-induced mice (acute hepatic fibrosis model). The series can be described thus: Serum ALT by ELISA in CCl4 model. Type of series: in vivo. Conditions: 5 or 10 mg/mice i.p. 3×/week for 4 weeks. On the procedure: as §4, §5
Background: An ELISA detects its analyte on a solid surface through an enzyme-linked reagent.

The test system of a further series is liver NK cells. Put plainly: F-actin expression in liver NK cells (western blot, immunofluorescence) in CCl4 model. The note with it: immune-stained liver tissue, confocal microscopy. Type of series: in vivo, mice. The procedure: as §4, with “A scrambled peptide was also i.p injected to CCl4 induced mice (5 mg/mice n=8, 10 mg/mice n=8).” left out, “Mice were sacrificed two days after the final CCl4 injection. To this end, the animals were weighed and anesthetized with inhaled 5% isoflurane for 10 seconds before cervical dislocation.” left out
Western blot analysis: Liver protein extracts were homogenized with buffer (50 mmol/L Tris-HCl [pH 7.61, 0.25% Triton-X 100, 0.15 M NaCl, 10 mM CaCl2) and complete mini EDTA-free protease inhibitor cocktail (Roche Diagnostics, Mannheim, Germany). […] Immunoreactivity was detected using an ECL kit (Abcam).
Immunofluorescence staining: For deparaffinization, paraffin-embedded sections were placed at 60° C. for 15 minutes, incubated in xylene at room temperature for 15 minutes, and then transferred sequentially to 100% EtOH, 95% EtOH, 70% EtOH, and 50% EtOH for four minutes each at room temperature. […] An argon laser (488 nm excitation) was used to detect green fluorescence, and an Alexa Fluor laser (552 nm) to detect red fluorescence. […]

The test system of a further series is β-neurexin. The series can be described thus: β-neurexin expression in liver by RT-PCR in CCl4 model. The class given is in vivo. Conditions: relative to naïve mice, 5 or 10 mg/mice i.p. 3×/week for 4 weeks.
Series [3] deals with LX2 cells. The series can be described thus: LX2 cell activity (αSMA) in monoculture, flow cytometry. Type of series: cell-based, human. Conditions: monoculture, 2000, 4000, 8000 ng/ml (peptide 3: 2000 or 4000 ng/ml), vs untreated.
Excerpt: as §1, §2, §3
Following that, the NLGn4-Nrx1β PPI peptides were screened for their effect on the activity of LX2 cells, which was evaluated by measuring the levels of αSMA activation marker. Monocultures of LX2 cells were stimulated with increasing concentrations of the NLGn4-Nrx1βPPI peptides (FIGS. 3A-C).

For series [4], the system named is LX2 cells. Put plainly: αSMA in LX2 cells co-cultured with peptide pre-activated NK cells, flow cytometry. The class given is cell-based, human. On the procedure:
as §2
Co-culture conditions: co-cultures conditions—peptides were supplemented to media of cultured NK cells for 6 h stimulation followed by a wash, trypsinization, and coculturing on LX2 cells for an additional 24 h.
as §3
To test if NLGn4-Nrx1β PPI inhibitory peptides mediated deactivation of LX2 cells is more prominent in the presence of NK cells, a co-culture setting was established for LX2 cells in the presence or absence of activated NK cells (FIGS. 4A-C).
In this setting, NK cells were stimulated with increasing concentrations of NLGn4-Nrx1βPPI inhibitory peptides before co-culturing them with LX2 cells, to examine whether pre-activation makes them more functional in deactivating LX2 cells.

The target of series [5] is neurexin 1β (Nrx1β) expressed on Hep3B hepatocellular carcinoma cells (human, UniProt Q9ULB1-3 31-1547). The series can be described thus: cell-based or functional assay.
Sequence of neurexin 1β (Nrx1β) expressed on Hep3B hepatocellular carcinoma cells (Q9ULB1 other isoform, or with tags, fused parts or gaps limits assumed): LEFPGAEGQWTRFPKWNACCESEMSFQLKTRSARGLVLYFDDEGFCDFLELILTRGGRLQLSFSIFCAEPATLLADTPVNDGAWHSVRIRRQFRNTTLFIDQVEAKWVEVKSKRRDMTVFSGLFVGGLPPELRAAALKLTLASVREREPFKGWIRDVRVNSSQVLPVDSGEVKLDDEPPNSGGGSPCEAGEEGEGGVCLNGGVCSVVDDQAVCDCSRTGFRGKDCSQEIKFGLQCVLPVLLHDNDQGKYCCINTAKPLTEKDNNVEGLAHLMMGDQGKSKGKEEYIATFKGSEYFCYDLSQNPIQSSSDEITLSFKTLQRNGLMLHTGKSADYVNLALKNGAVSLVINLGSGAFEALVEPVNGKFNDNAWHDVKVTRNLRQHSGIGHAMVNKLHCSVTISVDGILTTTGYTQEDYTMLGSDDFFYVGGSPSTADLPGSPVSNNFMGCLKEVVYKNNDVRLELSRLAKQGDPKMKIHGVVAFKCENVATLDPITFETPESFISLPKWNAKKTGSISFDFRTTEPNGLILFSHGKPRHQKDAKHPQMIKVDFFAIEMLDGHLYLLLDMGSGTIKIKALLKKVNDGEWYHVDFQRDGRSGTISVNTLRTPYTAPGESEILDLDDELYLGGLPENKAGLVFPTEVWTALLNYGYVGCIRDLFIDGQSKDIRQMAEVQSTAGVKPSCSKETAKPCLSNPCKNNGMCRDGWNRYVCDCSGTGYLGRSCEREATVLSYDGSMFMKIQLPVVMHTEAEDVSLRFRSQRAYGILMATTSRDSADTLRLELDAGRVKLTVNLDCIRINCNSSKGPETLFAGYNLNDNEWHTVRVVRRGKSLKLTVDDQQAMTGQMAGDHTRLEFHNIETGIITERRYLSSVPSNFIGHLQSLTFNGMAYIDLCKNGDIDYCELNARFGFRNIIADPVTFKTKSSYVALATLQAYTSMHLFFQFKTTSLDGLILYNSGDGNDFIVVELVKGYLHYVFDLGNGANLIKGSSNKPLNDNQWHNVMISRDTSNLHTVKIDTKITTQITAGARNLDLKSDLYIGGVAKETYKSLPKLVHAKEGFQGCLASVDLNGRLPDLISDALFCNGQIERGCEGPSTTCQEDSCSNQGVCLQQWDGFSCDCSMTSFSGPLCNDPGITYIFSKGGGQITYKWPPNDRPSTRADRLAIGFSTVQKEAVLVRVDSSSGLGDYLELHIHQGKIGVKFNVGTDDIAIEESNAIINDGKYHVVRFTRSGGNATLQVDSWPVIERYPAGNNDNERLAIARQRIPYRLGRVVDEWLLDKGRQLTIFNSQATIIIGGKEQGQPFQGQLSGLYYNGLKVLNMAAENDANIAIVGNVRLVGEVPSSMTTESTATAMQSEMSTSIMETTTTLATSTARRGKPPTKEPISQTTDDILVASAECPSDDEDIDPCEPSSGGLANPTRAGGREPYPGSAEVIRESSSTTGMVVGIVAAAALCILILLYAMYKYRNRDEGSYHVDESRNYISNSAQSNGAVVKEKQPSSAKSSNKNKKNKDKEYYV

For the molecule DPQILMEQGEFLNYDIMLGV [peptide 3], the “toxicity to NK cells” value with NK cells (inferred from CD107a decrease at higher peptide concentrations) is reported as “may be toxic to the cells”.
For the molecule LEGEDQNFYM [scrambled peptide], in series [1], the “collagen deposition / fibrous dense tissue (Sirius Red staining)” value was “increased collagen deposition in perisinusoidal areas”. Moreover, in the series on Hep3B cells, the “percentage of cells existing at a state of G1” value stood at 38%, the “percentage of cells existing at a state of G2-M phase” value turned out to be 25% and the “percentage of cells existing at a state of S-phase” value stood at 11%. In [2], the “levels of serum ALT” value was “significant increase in ALT levels”. For the same molecule, in the series with liver NK cells, the “F-actin inside NK cells, co-localization with NKP46 (immunofluorescence)” value was “not seen inside NK cells”. For the same molecule, the “levels of β-neurexin in liver” value in the series with β-neurexin is “elevated levels of β-neurexin”.
As to QILMEQGEFLNYDIM [peptide 2], the “activity of LX2 cells (levels of αSMA)” value in the series on LX2 cells [3] is listed as “deactivation of the cells”. Moreover, the “activity of NK cells (levels of CD107a)” value with NK cells (monoculture, 6 h stimulation, 2000, 4000, 8000 ng/ml (peptide 3: 2000 or 4000 ng/ml), vs untreated) is reported as “elevated the activity of the cells”. Besides, the “dose dependence of effect on NK cell activity (CD107a)” value in the series on NK cells (monoculture, increasing concentrations 2000-8000 ng/ml) is recorded as “not dose-dependent”. Also, in the series with LX2 cells [4] (NK cells pre-activated with increasing concentrations), the “dose dependence of effect in co-culture (αSMA)” value is reported as “not dose-dependent”. For the same molecule, in the series with LX2 cells [4] (NK cells pre-stimulated 6 h with 2000-8000 ng/ml peptide, co-culture 24 h), the “activity of LX2 cells (levels of αSMA) in co-culture with pre-activated NK cells” value is given as “downregulated the activity of the LX2 cells”.
Regarding MEQGEFLNYD [NLGn4-Nrx1β PPI inhibitory peptide 1], in [5], the “apoptotic marker phosphatidylserine (Annexin-V+/PI-) in Hep3B cells (flow cytometry), peptide 1 against scrambled control peptide” value worked out at 3 fold increase; the “expression of PDGFRA and MKI67 proliferation markers in Hep3B cells (flow cytometry), peptide 1 against scrambled control peptide” value is roughly 2 fold reduction; the “expression of the necrotic marker CDNK2A in Hep3B cells (flow cytometry), peptide 1 against scrambled control peptide” value is 2 fold reduction; the “percentage of Hep3B cells in G1 phase (PI staining, flow cytometry), 8000 ng/ml peptide 1 against scrambled control peptide” value is roughly 2 fold increase. In series [5], the “percentage of Hep3B cells in G2-M phase (PI staining, flow cytometry), 8000 ng/ml peptide 1 against scrambled control peptide” value was determined as 2.5 fold decrease; the “percentage of Hep3B cells in S-phase (PI staining, flow cytometry), 8000 ng/ml peptide 1 against scrambled control peptide” value was roughly 2 fold decrease; the “phosphorylated AKT/mTOR/P70S6K in Hep3B cells (flow cytometry), peptide 1 against scrambled control peptide” value is 2 fold reduction.
